Laboratory results: patent publication US20050009837A1, “Modulators of lipid metabolism and methods of use” (City of Hope, priority 2003, published 2005)

What was measured:
[1] = test system: CV-1 cells; experiment: Cytotoxicity in transfected CV-1 cells; details: T0901317 100 nM; Clotrimazole, S883417, S100250 10 μM; approximately 40 hours
Experimental: (§1) Synthetic compounds were screened in an effort to find more specific LXR inhibitors. CV-1 cells were maintained and transfected using known methods. Forman et al., Cell 81: 687-693, 1995. CV-1 cells were transiently transfected with Gal-hLXRα, the RXR LBD, the UASGx4 TK Luc reporter and CMX-β-gal as an internal control, either in standard or in lipid-stripped serum. After transfection, cells were treated for approximately 40 hours with phenol red-free DMEM-FBS containing the indicated compounds at the following concentrations: T0901317 (100 nM), Clotrimazole (10 μM), S883417(10 μM) and S100250 (10 μM), unless otherwise specified. After exposure to ligand, the cells were harvested and assayed for luciferase and β-galactosidase activity. The luciferase activity was normalized to the internal β-galactosidase control (reporter activity).

[2] = biological target: T1, LXRα (Homo sapiens, UniProt Q13133); experiment: Transient transfection assay Gal-hLXRα + RXR LBD, UASGx4 TK Luc reporter, CV-1 cells; type: cell-based; details: 10 μM; for repression of LXRα activity: approximately 40 hours, lipid-stripped serum; for less effective than Clotrimazole in repressing LXRα: relative to Clotrimazole
T1 construct: expressed in transfected cells; host or cells: CV-1 cells
T1 sequence (Q13133 209-447 limits assumed): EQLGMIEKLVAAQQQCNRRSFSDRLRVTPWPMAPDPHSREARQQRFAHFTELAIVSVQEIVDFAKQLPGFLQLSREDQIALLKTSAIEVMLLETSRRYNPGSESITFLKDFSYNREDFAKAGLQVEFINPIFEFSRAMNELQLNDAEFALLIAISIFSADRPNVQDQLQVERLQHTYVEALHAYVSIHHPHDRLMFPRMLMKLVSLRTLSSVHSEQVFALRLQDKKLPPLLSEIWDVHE
T1 sequence (P19793 227-458 partner limits assumed): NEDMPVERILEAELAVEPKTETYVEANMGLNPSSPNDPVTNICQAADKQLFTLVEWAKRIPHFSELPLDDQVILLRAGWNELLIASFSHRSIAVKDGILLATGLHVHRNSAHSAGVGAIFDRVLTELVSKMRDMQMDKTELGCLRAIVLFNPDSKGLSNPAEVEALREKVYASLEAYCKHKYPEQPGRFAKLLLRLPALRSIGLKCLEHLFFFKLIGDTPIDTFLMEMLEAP
Experimental: as §1
(§2) The ability of these compounds to repress LXRα and LXRβ was compared by transfecting CV-1 cells with either the RXR LBD alone or the RXR LBD together with either Gal-LXRα or Gal-LXRβ.
(§3) Transfections were performed as described above, with increasing concentrations of Clotrimazole.

[3] = biological target: T2, ligand binding domain of LXRα-RXR heterodimers (Homo sapiens, UniProt Q13133); experiment: LXR ligand binding domain mediated activity, UASGx4 TK-Luc reporter in CV-1 cells; type: cell-based; details: 20 μM
T2 construct: expressed in transfected cells; host or cells: CV-1 cells
T2 sequence (Q13133 209-447 limits assumed): T1 sequence (Q13133 209-447 limits assumed)
T2 sequence (P19793 227-458 partner limits assumed): T1 sequence (P19793 227-458 partner limits assumed)
Experimental: (§4) CV-1 cells were grown in DMEM supplemented with 10% resin-charcoal stripped fetal bovine serum, 50 U/ml penicillin G and 50 μg/ml streptomycin sulfate at 37° C. in 5% CO2. Cells were plated to 50-80% confluence one day prior to transfection using phenol red-free DMEM-FBS. The cells were transfected by lipofection using N-[1-(2,3-dioleoyloxy)propyl]-N,N,N-ammonium methyl sulfate according to manufacturer's instructions (Boehringer Mannheim).
(§5) Genes encoding the following full-length proteins, which are suitable for use in the studies described herein, were cloned into pCMX: human RXRα (Gene Bank accession X52773) and human LXRα (GenBank accession U22662). The cells were transfected with CMX-βgal and luciferase constructs. The CMX-βGal construct contained the ligand binding domain of human RXR (hRXRα) and the ligand binding domain of human LXRα (hLXRα) as indicated in FIG. 1. The luciferase reporter construct (LXREx3 TK-Luc) contained the herpes virus thymidine kinase promoter (−105/+51) linked to three copies of the response element LXRE. After transfection, the cells were treated with 20 μM of a synthetic azole test compound or vehicle alone for 40 hours in phenol red-free DMEM-FBS. After exposure to the candidate antagonist compounds, cells were harvested and assayed for luciferase and β-galactosidase activity.
The reporter gene was UASGx4 TK-Luc.

[4] = biological target: T3, LXRα-RXR heterodimers and receptor interaction domains of coactivator SRC1 (Homo sapiens, UniProt Q13133); experiment: LXR-coactivator association, VP-L-hLXRα / L-hRXRα / GAL4-SRC1 in CV-1 cells; type: cell-based; details: 20 μM, coactivator GAL4-SRC1, CV-1 cells
T3 construct: expressed in transfected cells; host or cells: CV-1 cells
T3 sequence (Q13133 209-447 limits assumed): T1 sequence (Q13133 209-447 limits assumed)
T3 sequence (P19793 227-458 partner limits assumed): T1 sequence (P19793 227-458 partner limits assumed)
Experimental: as §4
as §5, with “DMEM-FBS.” for “DMEM-FBS. After exposure to the candidate antagonist compounds, cells were harvested and assayed for luciferase and β-galactosidase activity.”
VP-L-hLXRα contains the transactivation domain of Herpes VP16, linked to the LBD of human LXRα, L-hRXRα is the LBD of human RXRα. UASGx4 TK-Luc was the reporter gene, and the assay additionally included the coactivator GAL4-SRC1. Treatment with 20 μM azole compound as indicated was able to inhibit interactions between LXRα-RXR heterodimers and the receptor interaction domains from the coactivator SRC1.

[5] = biological target: T4, LXRβ (Homo sapiens, UniProt P55055); experiment: Transient transfection assay Gal-LXRβ + RXR LBD, UASGx4 TK Luc reporter, CV-1 cells; type: cell-based; details: 10 μM; for repression of LXRβ activity: approximately 40 hours, lipid-stripped serum; for less effective than Clotrimazole in repressing LXRβ: relative to Clotrimazole
T4 construct: expressed in transfected cells; host or cells: CV-1 cells
T4 sequence (P55055 222-460 limits assumed): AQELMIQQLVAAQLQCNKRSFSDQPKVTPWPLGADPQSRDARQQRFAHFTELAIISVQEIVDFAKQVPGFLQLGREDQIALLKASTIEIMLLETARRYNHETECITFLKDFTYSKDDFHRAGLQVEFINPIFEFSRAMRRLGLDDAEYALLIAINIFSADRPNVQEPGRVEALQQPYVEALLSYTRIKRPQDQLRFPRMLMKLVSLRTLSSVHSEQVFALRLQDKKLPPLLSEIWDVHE
T4 sequence (P19793 227-458 partner limits assumed): T1 sequence (P19793 227-458 partner limits assumed)
Experimental: as §1, §2, §3

[6] = biological target: T5, human LXRα (Homo sapiens, UniProt Q13133); experiment: Full-length hLXRα/hRXRα LXREx3 TK-Luc reporter assay in transfected CV-1 cells; type: cell-based; details: 20 μM, 40 hours
T5 construct: expressed in transfected cells; host or cells: CV-1 cells
T5 sequence (Q13133 1-447): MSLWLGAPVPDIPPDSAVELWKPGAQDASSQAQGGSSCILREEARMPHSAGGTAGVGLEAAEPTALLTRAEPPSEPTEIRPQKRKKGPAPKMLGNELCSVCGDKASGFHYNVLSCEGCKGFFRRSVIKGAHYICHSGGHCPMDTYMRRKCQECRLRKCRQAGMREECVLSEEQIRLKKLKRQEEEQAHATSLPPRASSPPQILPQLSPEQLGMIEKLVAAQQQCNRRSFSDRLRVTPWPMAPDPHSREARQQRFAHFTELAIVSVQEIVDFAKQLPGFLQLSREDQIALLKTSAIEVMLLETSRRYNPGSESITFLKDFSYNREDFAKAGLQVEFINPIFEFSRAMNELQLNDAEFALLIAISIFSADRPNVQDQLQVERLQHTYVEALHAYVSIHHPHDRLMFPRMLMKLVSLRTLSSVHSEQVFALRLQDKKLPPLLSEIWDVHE
T5 sequence (P19793 1-462 partner): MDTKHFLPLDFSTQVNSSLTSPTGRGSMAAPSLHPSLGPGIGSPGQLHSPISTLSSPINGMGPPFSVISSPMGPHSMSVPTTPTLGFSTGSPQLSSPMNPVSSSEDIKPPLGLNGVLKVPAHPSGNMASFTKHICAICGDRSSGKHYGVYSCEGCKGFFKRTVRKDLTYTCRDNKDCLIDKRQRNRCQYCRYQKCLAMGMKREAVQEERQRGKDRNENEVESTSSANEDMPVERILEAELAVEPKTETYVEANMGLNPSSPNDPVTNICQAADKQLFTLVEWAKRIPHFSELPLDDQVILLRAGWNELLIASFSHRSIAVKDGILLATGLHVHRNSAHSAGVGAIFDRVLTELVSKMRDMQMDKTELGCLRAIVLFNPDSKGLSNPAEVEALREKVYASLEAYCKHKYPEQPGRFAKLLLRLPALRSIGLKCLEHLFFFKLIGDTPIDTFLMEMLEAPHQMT
Experimental: as §4
as §5, with “DMEM-FBS.” for “DMEM-FBS. After exposure to the candidate antagonist compounds, cells were harvested and assayed for luciferase and β-galactosidase activity.”

[7] = biological target: LXRα (Homo sapiens, UniProt Q13133); experiment: LXR activity, fatty acids

Compound | cytotoxicity [1] | repression of LXRα activity [2] | less effective than Clotrimazole in repressing LXRα [2] | inhibition of constitutive activation by the LXRα-RXR ligand binding domain (UASGx4 TK-Luc) [3] | inhibition of LXR-coactivator association [4] | repression of LXRβ activity [5] | less effective than Clotrimazole in repressing LXRβ [5] | antagonism of constitutive activation mediated by LXR (hLXRα activity, LXREx3 TK-Luc) [6] | effect on LXR activity [7]
c1ccc(-c2cncn2C(c2ccccc2)(c2ccccc2)c2ccccc2)cc1 [S100250] | No cytotoxicity | repressed | approximately 50% | inhibit constitutive activation | inhibition of LXR-coactivator association | repressed | approximately 50% | antagonize the constitutive activation mediated by LXR | –
CC/C=C\C/C=C\C/C=C\CCCCCCCC(=O)O [αlinoleic acid] | – | – | – | – | – | – | – | – | LXR antagonist
Cl.FC(F)(F)c1cccc(C(c2ccccc2)(c2ccccc2)n2ccnc2)c1 [S883417] | No cytotoxicity | repressed | approximately 50% | inhibit constitutive activation | inhibition of LXR-coactivator association | repressed | approximately 50% | antagonize the constitutive activation mediated by LXR | –
